Assay: Encapsulation rate of β-CD-MOF for active substances
Type: physicochemical
Conditions: carrier β-CD-MOF; loaded by impregnation, Examples 1-5

Structure (SMILES) | Encapsulation rate [%]
O=C/C=C/c1ccccc1 [Cinnamic aldehyde, cinnamic aldehyde] | 79.68 ± 0.28
COc1cc2c(=O)c(-c3ccc(O)cc3)coc2cc1O [Glycitein, glycitein] | 76.34 ± 0.23
O=C1C[C@@H](c2ccc(O)cc2)Oc2cc(O)cc(O)c21 [Naringenin, naringenin] | 70.23 ± 0.15

Continued, values first:

Encapsulation rate [%] | Structure (SMILES)
82.19 ± 0.35 | Oc1ccc(C=Cc2cc(O)cc(O)c2)cc1 [Resveratrol, resveratrol]
76.40 ± 0.67 | Cc1coc2c1C(=O)C(=O)c1c-2ccc2c1CCCC2(C)C [Tanshinone IIA, tanshinone IIA]

Reference: US11744903B2, “Method for preparing cyclodextrin metal organic framework (CD-MOF) stable in aqueous phase” (Qilu University of Technology, priority 2022, dated 2023)
